According to patent US8524688B2, “Use of sulfated glycosaminoglycans for establishing effective labor in women” (Dilafor AB, priority 2002, dated 2013):

How the values were obtained:
cervical fibroblasts = assay: Effect on Ca2+ levels in cervical fibroblasts (Fluo-4 fluorescence); format: cell-based, human; settings: cultures from non-pregnant and term pregnant patients
Description: Fibroblast cultures were established from non-pregnant, and term pregnant patients and from women delivered vaginally (after partus patients). The cells were cultured in monolayer cultures with minimum essential medium with 10% donor calf serum. For experiments these cells were plated on cover glasses with at semi-confluence and loaded with Fluo-4 in phosphate buffered saline containing 10 mM HEPES for 30 min. Initially phosphate buffered saline containing 10 mM HEPES (HEPES-buffer) was pumped into the observation chamber for 30 s, then KCl in the same buffer was pumped for 60 s followed by HEPES-buffer for 30 s. Then 10 ng of PDGF/ml in HEPES-buffer was added. The fluorescence was monitored continuously for 3 min. In other experiments PDGF was replaced with 100 μg of HS6. […] This effect is postulated to be of importance at partus for final preparation of cervix for delivery.

[1] = tested on: human uterine strips (myometrial strip); assay: Contractile assay on uterine strips in organ bath; settings: 1 U oxytocin only
Description: In the following test heparan sulfate HS2 and HS6 obtained from the heparin side fraction TB 001-91 SVCM 950130 (Kabi-Pharmacia, Sweden) were tested. HS6 differs from HS2 by being more highly sulfated and having more L-iduronic acid residues (see Table 1 above).
Uterine samples were obtained from women undergoing elective caesarian section at 38-39 weeks of gestation. The samples measured 20×10×10 mm and were taken from the upper part of the isthmic incision. The biopsy was immediately placed in ice-cold Krebs-Ringer buffer. The biopsies were cut into longitudinal strips, length 10-15 mm and breadth about 5 mm. The strip was mounted vertically in an organ bath of 37° C. containing 2 ml Krebs-Ringer solution. The solution was bubbled with a mixture of 95% O2 and 5% CO2 in order to maintain a pH in the bath of 7.35-7.45. Experiments were carried out after the strips had equilibrated to a stable contractile state, usually within 1-2 h after mounting. The contractions were recorded isometrically with a Grass model 7 polygraph (Grass Instr. Co., Quincy, Mass., USA). All samples were exposed to 100 mM KCl during the experiment in order to get a standardized maximum response. […]
This procedure was repeated using 6 μg of heparan sulfate. […] The contractions were recorded and evaluated by integrating the surface under the curve. […]

Row | Compound | Change of fluorescence (intracellular Ca2+) (cervical fibroblasts) | Relative contractility of myometrial strip, oxytocin control [1]
1 | [Cl-].[K+] [KCl] | No change of fluorescence | 
2 | CC[C@H](C)[C@@H]1NC(=O)[C@H](Cc2ccc(O)cc2)NC(=O)[C@@H](N)CSSC[C@@H](C(=O)N2CCC[C@H]2C(=O)N[C@@H](CC(C)C)C(=O)NCC(N)=O)NC(=O)[C@H](CC(N)=O)NC(=O)[C@H](CCC(N)=O)NC1=O [Oxytocin, oxytocin] |  | 226 % of unstimulated control
3 | PDGF | No change of fluorescence | 
